From ChEMBL document CHEMBL1201862, “PubChem BioAssay data set” (2004)
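Test compounds were applied to cells in 96-well plates for 48 hours at 5 doses. GI50 = concentration required for 50% inhibition of growth.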 Calls of active or inactive are those of the source. Rule as the data show it: active = GI50 up to about 1.1 µM and inactive = higher.

How the values were obtained:
Test in all cases: growth of human tumour cells (NCI), 48 h
SK-OV-3 = tested on: SK-OV-3
U-251 = tested on: U-251
SK-MEL-28 = tested on: SK-MEL-28
TK-10 = tested on: TK-10
M14 = tested on: M14
MDA-N = tested on: MDA-N
OVCAR-3 = tested on: OVCAR-3
CCRF-CEM = tested on: CCRF-CEM
OVCAR-5 = tested on: OVCAR-5
UACC-257 = tested on: UACC-257
UO-31 = tested on: UO-31
OVCAR-8 = tested on: OVCAR-8
SK-MEL-5 = tested on: SK-MEL-5
ACHN = tested on: ACHN
Malme-3M = tested on: Malme-3M
A498 = tested on: A498
HOP-62 = tested on: HOP-62
SF-539 = tested on: SF-539
NCI-H23 = tested on: NCI-H23
HCC 2998 = tested on: HCC 2998
COLO 205 = tested on: COLO 205
NCI-H226 = tested on: NCI-H226
HCT-15 = tested on: HCT-15
PC-3 = tested on: PC-3
Hs-578T = tested on: Hs-578T
CAKI-1 = tested on: CAKI-1
EKVX = tested on: EKVX
A549 = tested on: A549
MOLT-4 = tested on: MOLT-4
786-0 = tested on: 786-0
HOP-92 = tested on: HOP-92
HCT-116 = tested on: HCT-116
NCI/ADR-RES = tested on: NCI/ADR-RES
MDA-MB-435 = tested on: MDA-MB-435
NCI-H460 = tested on: NCI-H460
HL-60 = tested on: HL-60
LOX IMVI = tested on: LOX IMVI
IGROV-1 = tested on: IGROV-1
SF-268 = tested on: SF-268
HT-29 = tested on: HT-29
SR = tested on: SR
DU-145 = tested on: DU-145
RPMI-8226 = tested on: RPMI-8226
SK-MEL-2 = tested on: SK-MEL-2
SNB-19 = tested on: SNB-19
SW-620 = tested on: SW-620
UACC-62 = tested on: UACC-62
NCI-H522 = tested on: NCI-H522
BT-549 = tested on: BT-549
MDA-MB-231 = tested on: MDA-MB-231
SNB-75 = tested on: SNB-75
KM12 = tested on: KM12
T47D = tested on: T47D
SF-295 = tested on: SF-295
MCF7 = tested on: MCF7
SN12C = tested on: SN12C

Measured: GI50

O=C1c2cc(-c3ccccc3)cnc2S(=O)(=O)N1c1ccc(Br)cc1
34.7 µM: HCT-15
inactive: SK-OV-3 26.2 µM | U-251 30.1 µM | SK-MEL-28 90.8 µM | TK-10 > 100 µM | M14 76.9 µM | MDA-N > 100 µM | OVCAR-3 47.1 µM | CCRF-CEM 24.9 µM | OVCAR-5 40.8 µM | UACC-257 > 100 µM | UO-31 > 100 µM | OVCAR-8 44 µM | SK-MEL-5 70 µM | ACHN > 100 µM | Malme-3M 20.3 µM | A498 > 100 µM | HOP-62 16.8 µM | SF-539 30.5 µM | NCI-H23 63.1 µM | HCC 2998 17.8 µM | COLO 205 > 100 µM | NCI-H226 > 100 µM | PC-3 34.4 µM | Hs-578T 20 µM | CAKI-1 40.4 µM | EKVX > 100 µM | A549 18.7 µM | MOLT-4 46.3 µM | 786-0 37.6 µM | HOP-92 27.1 µM | HCT-116 71.9 µM | NCI/ADR-RES 83.6 µM | MDA-MB-435 > 100 µM | NCI-H460 24.3 µM | HL-60 18.9 µM | LOX IMVI 41.1 µM | IGROV-1 46.2 µM | SF-268 33.7 µM | HT-29 > 100 µM | SR 10.3 µM | DU-145 58.3 µM | RPMI-8226 21.1 µM | SK-MEL-2 96.2 µM | SNB-19 15.8 µM | SW-620 81.8 µM | UACC-62 32.8 µM | NCI-H522 14.8 µM | BT-549 > 100 µM | MDA-MB-231 52.2 µM | SNB-75 25.1 µM | KM12 25.5 µM | T47D 37.7 µM | SF-295 20 µM | MCF7 > 100 µM | SN12C > 100 µM
